Data published in the NIST ThermoML archive (doi:10.1016/j.jct.2015.03.001).

How the values were obtained:
[1] = refractive index (Na D-line) (dimensionless); xn = mol fraction of the nth substance listed; settings: 99 kPa, Liquid, Abbe refractometer
[2] = relative permittivity at various frequencies (dimensionless); xn = mol fraction of the nth substance listed; settings: 99 kPa, Liquid, Frequency=2 MHz, Parallel plate capacitor

CC(C)CCl [1-chloro-2-methylpropane] + CCCCCC
Settings | refractive index, 283.15 K | refractive index, 298.15 K | refractive index, 313.15 K | relative permittivity, 283.15 K | relative permittivity, 298.15 K | relative permittivity, 313.15 K
[1], x2 = 0 | 1.40354 | 1.39529 | 1.38683 | – | – | –
[1], x2 = 0.0484 | 1.40197 | 1.39371 | 1.38526 | – | – | –
[1], x2 = 0.0984 | 1.40039 | 1.39212 | 1.38366 | – | – | –
[1], x2 = 0.2052 | 1.39725 | 1.38895 | 1.38049 | – | – | –
[1], x2 = 0.3044 | 1.39452 | 1.3862 | 1.37775 | – | – | –
[1], x2 = 0.4034 | 1.39199 | 1.38367 | 1.37523 | – | – | –
[1], x2 = 0.5052 | 1.38961 | 1.3813 | 1.37287 | – | – | –
[1], x2 = 0.6134 | 1.38726 | 1.37897 | 1.37057 | – | – | –
[1], x2 = 0.7019 | 1.38551 | 1.37722 | 1.36883 | – | – | –
[1], x2 = 0.8082 | 1.38355 | 1.37526 | 1.3669 | – | – | –
[1], x2 = 0.908 | 1.38189 | 1.3736 | 1.36525 | – | – | –
[1], x2 = 0.9475 | 1.38129 | 1.37301 | 1.36468 | – | – | –
[2], x2 = 0 | – | – | – | 7.472 | 7.074 | 6.657
[2], x2 = 0.0482 | – | – | – | 7.14 | 6.773 | 6.385
[2], x2 = 0.1006 | – | – | – | 6.784 | 6.442 | 6.082
[2], x2 = 0.1985 | – | – | – | 6.106 | 5.816 | 5.506
[2], x2 = 0.2966 | – | – | – | 5.432 | 5.191 | 4.929
[2], x2 = 0.3985 | – | – | – | 4.768 | 4.573 | 4.358
[2], x2 = 0.5036 | – | – | – | 4.142 | 3.991 | 3.82
[2], x2 = 0.5998 | – | – | – | 3.626 | 3.513 | 3.38
[2], x2 = 0.6993 | – | – | – | 3.149 | 3.064 | 2.966
[2], x2 = 0.8028 | – | – | – | 2.707 | 2.648 | 2.579
[2], x2 = 0.9002 | – | – | – | 2.315 | 2.278 | 2.232
[2], x2 = 0.9462 | – | – | – | 2.129 | 2.102 | 2.068

CC(C)CCl [1-chloro-2-methylpropane] + CCCCCCC
Settings | refractive index, 283.15 K | refractive index, 298.15 K | refractive index, 313.15 K | relative permittivity, 283.15 K | relative permittivity, 298.15 K | relative permittivity, 313.15 K
[1], x2 = 0 | 1.40354 | 1.39529 | 1.38683 | – | – | –
[1], x2 = 0.0485 | 1.40248 | 1.39425 | 1.38582 | – | – | –
[1], x2 = 0.1009 | 1.40145 | 1.39325 | 1.38485 | – | – | –
[1], x2 = 0.2046 | 1.39974 | 1.39161 | 1.38327 | – | – | –
[1], x2 = 0.3065 | 1.3983 | 1.39022 | 1.38196 | – | – | –
[1], x2 = 0.4028 | 1.39716 | 1.38914 | 1.38093 | – | – | –
[1], x2 = 0.5039 | 1.3961 | 1.38814 | 1.37999 | – | – | –
[1], x2 = 0.603 | 1.3952 | 1.38729 | 1.3792 | – | – | –
[1], x2 = 0.7033 | 1.39445 | 1.3866 | 1.37858 | – | – | –
[1], x2 = 0.8026 | 1.39381 | 1.38601 | 1.37804 | – | – | –
[1], x2 = 0.9158 | 1.39326 | 1.38548 | 1.37758 | – | – | –
[1], x2 = 0.9513 | 1.3931 | 1.38538 | 1.37749 | – | – | –
[2], x2 = 0 | – | – | – | 7.472 | 7.074 | 6.657
[2], x2 = 0.0467 | – | – | – | 7.151 | 6.783 | 6.395
[2], x2 = 0.1011 | – | – | – | 6.755 | 6.418 | 6.062
[2], x2 = 0.197 | – | – | – | 6.042 | 5.749 | 5.45
[2], x2 = 0.297 | – | – | – | 5.32 | 5.08 | 4.828
[2], x2 = 0.4028 | – | – | – | 4.619 | 4.43 | 4.232
[2], x2 = 0.5045 | – | – | – | 4.028 | 3.88 | 3.725
[2], x2 = 0.6012 | – | – | – | 3.537 | 3.425 | 3.3
[2], x2 = 0.7002 | – | – | – | 3.094 | 3.012 | 2.918
[2], x2 = 0.801 | – | – | – | 2.697 | 2.636 | 2.568
[2], x2 = 0.9058 | – | – | – | 2.303 | 2.262 | 2.219
[2], x2 = 0.9473 | – | – | – | 2.147 | 2.114 | 2.081
